Earlier results on one compound are cited in US12130296B2, “Method for the direct detection and/or quantification of at least one compound with a molecular weight of at least 200” (SANIFIT THERAPEUTICS S.A., priority 2011, dated 2024).

The conditions of the series: 12 dissociable protons; Carbohydr Res 46, 159-171; 1976.

As for `O=P(O)(O)O[C@H]1[C@H](OP(=O)(O)O)[C@@H](OP(=O)(O)O)[C@H](OP(=O)(O)O)[C@@H](OP(=O)(O)O)[C@H]1OP(=O)(O)O` [inositol hexaphosphate], the pKa values result is reported as “from negative values to more than 10”.
